# Assay results reported in PMC5778071, “Development of matrix metalloproteinase-targeted probes for lung inflammation detection with positron emission tomography” (Scientific Reports, 2018).
# “And” between values parts separate entries of the source, which are not always exact repeats. Equal values may be shown once.
# What was measured:
# MMP-12 = system: MMP-12; design: method as in PMID 25438884; details: fluorogenic inhibition assay; cited from earlier work
# MMP-9 = system: MMP-9; design: method as in PMID 25438884; details: fluorogenic inhibition assay; cited from earlier work
# [1] = In vivo biodistribution study in Air and CS (COPD model) mice; design: species or system BALB/c mice; details: for Tissue radioactivity, Blood / Tissue radioactivity, Bone / Tissue radioactivity, Heart / Tissue radioactivity, Intestine / Tissue radioactivity, Kidney / Tissue radioactivity, Liver / Tissue radioactivity, Lung / Tissue radioactivity, Muscle / Tissue radioactivity, Pancreas / Tissue radioactivity, Spleen / Tissue radioactivity, Stomach: i.v.
# Method: The animals were randomly divided into two groups, control air-exposed (Air, n = 18) and cigarette smoke exposed (CS, n = 18) groups. The mice in the CS group were exposed to cigarette smoke for 10 min inside an acrylic box twice a day, 4–5 times a week, for 4 months using 1 cigarette (Peace, Japan Tobacco Inc., Tokyo, Japan) for every exposure following a previous report with slight modifications. The mice in the Air group were identically exposed to air without CS in a similar box. After the CS treatment, the animals were kept under normal warm and clean environmental conditions to allow for recovery and then housed as described above.
# Animals from each study group were randomly divided into 3 groups (n = 3 each) for each time point studied. Mice that were intravenously administered ^18F-IPFP (185 kBq/100 μl saline containing 0.1% tween 80) were sacrificed by cervical dislocation at 20, 45, and 90 min, and 5, 45, and 90 min after administration for the Air and CS groups, respectively. Blood was immediately collected from the heart cavity. Tissues were excised, weighed, and counted for radioactivity with an NaI well-type scintillation counter (1470 Wizard; PerkinElmer, Kanagawa, Japan).
# [2] = In vivo PET imaging of lung region; design: species or system BALB/c mice; details: 50–60 min after injection
# Method: PET data were acquired in list mode using a microPET Focus120 apparatus (Siemens), with a spatial resolution of 1.2 mm at the center of the field of view[24]. Animals (n = 2 per group) were placed in a prone position under 1–2% isoflurane anesthesia on a heating pad to maintain body temperature at 36–37 °C during the PET experiments. A transmission […] scan using an external ^68Ge source was acquired before the PET scan for attenuation correction. At the start of the PET scan, intravenous administration of ^18F-IPFP (4.7–8.1 MBq/100 μl saline containing 0.1% tween 80) was initiated for 15 sec followed by a 50–100 μl saline flush for 15 sec. The scan duration was 60 min. Following the PET scan, mice were immediately euthanized with an anesthesia overdose, followed by extraction of the lungs and heart. Extracted organs were placed on the PET bed and scanned for another 10 min. Thereafter, the lungs were frozen for ex vivo autoradiography analysis. Emission images were reconstructed using Fourier rebinning[25] and a maximum likelihood expectation maximization algorithm with a 128 × 128 × 95 matrix size, and a 0.43 × 0.43 × 0.80 mm^3 voxel size. The uptake of the tracer in the regions of interest was converted to the standardized uptake values (SUVs).
# [3] = Ex vivo autoradiography of lung sections; assay type: in vivo, BALB/c mice; details: after PET scan; for Radioactivity accumulation in lung sections (autoradiography): 20 μm sections
# Method: Following the PET experiments, the frozen lungs were cut into 20 μm thick sections with a cryomicrotome (Cryotome FSE; ThermoFisher Scientific, Tokyo, Japan). Lung sections at intervals of 100 μm (n = 2 each, 9 positions) were exposed to imaging plates (BAS-SR; GE Healthcare Japan, Tokyo, Japan) for 3 h. To quantify the signals, various concentrations of the administrated ^18F-IPFP dilutions were also plotted and exposed to imaging plates. Autoradiograms were obtained with a Typhoon FLA 7000 scanner, (GE Healthcare Japan), and the resulting images were analyzed by ImageQuant TL (GE Healthcare Japan). Radioactivities per area were determined by image analysis of the resulting autoradiograms and expressed as percent injected dose (%ID) per section calculated using the quantitation curve obtained by the ^18F-IPFP dilutions.
# [4] = Air group, 20 min after injection
# [5] = Air group, 45 min after injection
# [6] = Air group, 90 min after injection
# [7] = CS group, 5 min after injection
# [8] = CS group, 45 min after injection
# [9] = CS group, 90 min after injection
compound,measurement,setting,value
CC(C)C[C@H](CC(=O)NO)C(=O)N[C@@H](Cc1ccccc1)C(=O)N[C@@H](CCCCNC(=O)c1ccc(F)cc1)C(N)=O [^18F-FB-ML5],IC50,MMP-12,138 nM
same,IC50,MMP-9,31.5 nM
CC(C)C[C@H](CC(=O)NO)C(=O)N[C@@H](Cc1ccc(I)cc1)C(=O)N[C@@H](CCCCNC(=O)C(C)[18F])C(N)=O (stereo partly drawn) [^18F-IPFP],"Radioactivity accumulation in the lungs, CS group compared with Air group",[1]; 90 min after administration,> 4 fold and 4 fold
same,"Tissue radioactivity, Blood",[1]; [4],0.5 ± 0.1 %ID/g
same,"Tissue radioactivity, Bone",[1]; [4],0.4 ± 0.0 %ID/g
same,"Tissue radioactivity, Heart",[1]; [4],0.5 ± 0.1 %ID/g
same,"Tissue radioactivity, Intestine",[1]; [4],10.7 ± 2.2 %ID/g
same,"Tissue radioactivity, Kidney",[1]; [4],37.6 ± 6.4 %ID/g
same,"Tissue radioactivity, Liver",[1]; [4],22.6 ± 0.7 %ID/g
same,"Tissue radioactivity, Lung",[1]; [4],5.3 ± 0.6 %ID/g
same,"Tissue radioactivity, Muscle",[1]; [4],0.3 ± 0.1 %ID/g
same,"Tissue radioactivity, Pancreas",[1]; [4],5.4 ± 0.7 %ID/g
same,"Tissue radioactivity, Spleen",[1]; [4],0.9 ± 0.1 %ID/g
same,"Tissue radioactivity, Stomach",[1]; [4],2.8 ± 2.1 % injected dose
same,"Tissue radioactivity, Blood",[1]; [5],0.6 ± 0.0 %ID/g
same,"Tissue radioactivity, Bone",[1]; [5],0.5 ± 0.1 %ID/g
same,"Tissue radioactivity, Heart",[1]; [5],0.5 ± 0.0 %ID/g
same,"Tissue radioactivity, Intestine",[1]; [5],16.9 ± 3.0 %ID/g
same,"Tissue radioactivity, Kidney",[1]; [5],38.8 ± 4.2 %ID/g
same,"Tissue radioactivity, Liver",[1]; [5],15.2 ± 1.6 %ID/g
same,"Tissue radioactivity, Lung",[1]; [5],2.4 ± 0.4 %ID/g
same,"Tissue radioactivity, Muscle",[1]; [5],0.3 ± 0.2 %ID/g
same,"Tissue radioactivity, Pancreas",[1]; [5],4.5 ± 0.8 %ID/g
same,"Tissue radioactivity, Spleen",[1]; [5],0.8 ± 0.1 %ID/g
same,"Tissue radioactivity, Stomach",[1]; [5],1.5 ± 1.0 % injected dose
same,"Tissue radioactivity, Blood",[1]; [6],0.7 ± 0.1 %ID/g
same,"Tissue radioactivity, Bone",[1]; [6],0.7 ± 0.2 %ID/g
same,"Tissue radioactivity, Heart",[1]; [6],0.5 ± 0.1 %ID/g
same,"Tissue radioactivity, Intestine",[1]; [6],18.4 ± 2.1 %ID/g
same,"Tissue radioactivity, Kidney",[1]; [6],34.6 ± 3.3 %ID/g
same,"Tissue radioactivity, Liver",[1]; [6],11.2 ± 1.1 %ID/g
same,"Tissue radioactivity, Lung",[1]; [6],1.3 ± 0.1 %ID/g
same,"Tissue radioactivity, Muscle",[1]; [6],0.4 ± 0.1 %ID/g
same,"Tissue radioactivity, Pancreas",[1]; [6],3.9 ± 0.6 %ID/g
same,"Tissue radioactivity, Spleen",[1]; [6],0.8 ± 0.2 %ID/g
same,"Tissue radioactivity, Stomach",[1]; [6],0.5 ± 0.2 % injected dose
same,"Radioactivity accumulation in the lungs relative to heart, muscle and blood","[1]; COPD mice, 90 min after administration",10 fold
same,"Tissue radioactivity, Blood",[1]; [7],0.8 ± 0.1 %ID/g
same,"Tissue radioactivity, Bone",[1]; [7],1.0 ± 0.3 %ID/g
same,"Tissue radioactivity, Heart",[1]; [7],0.9 ± 0.3 %ID/g
same,"Tissue radioactivity, Intestine",[1]; [7],6.0 ± 0.6 %ID/g
same,"Tissue radioactivity, Kidney",[1]; [7],34.1 ± 3.6 %ID/g
same,"Tissue radioactivity, Liver",[1]; [7],30.8 ± 4.6 %ID/g
same,"Tissue radioactivity, Lung",[1]; [7],9.4 ± 1.9 %ID/g
same,"Tissue radioactivity, Muscle",[1]; [7],0.6 ± 0.1 %ID/g
same,"Tissue radioactivity, Pancreas",[1]; [7],6.2 ± 0.3 %ID/g
same,"Tissue radioactivity, Spleen",[1]; [7],2.5 ± 0.4 %ID/g
same,"Tissue radioactivity, Stomach",[1]; [7],1.0 ± 0.4 % injected dose
same,"Radioactivity accumulation in the lungs relative to surrounding tissues (heart, blood, muscle)",[1]; [8],> 10 fold
same,"Tissue radioactivity, Blood",[1]; [8],0.5 ± 0.1 %ID/g
same,"Tissue radioactivity, Bone",[1]; [8],0.6 ± 0.1 %ID/g
same,"Tissue radioactivity, Heart",[1]; [8],0.5 ± 0.1 %ID/g
same,"Tissue radioactivity, Intestine",[1]; [8],13.1 ± 0.3 %ID/g
same,"Tissue radioactivity, Kidney",[1]; [8],31.7 ± 2.2 %ID/g
same,"Tissue radioactivity, Liver",[1]; [8],17.4 ± 4.1 %ID/g
same,"Tissue radioactivity, Lung",[1]; [8],5.6 ± 0.5 %ID/g
same,"Tissue radioactivity, Muscle",[1]; [8],0.3 ± 0.1 %ID/g
same,"Tissue radioactivity, Pancreas",[1]; [8],4.8 ± 0.6 %ID/g
same,"Tissue radioactivity, Spleen",[1]; [8],1.2 ± 0.2 %ID/g
same,"Tissue radioactivity, Stomach",[1]; [8],2.2 ± 0.2 % injected dose
same,"Tissue radioactivity, Blood",[1]; [9],0.6 ± 0.1 %ID/g
same,"Tissue radioactivity, Bone",[1]; [9],0.8 ± 0.2 %ID/g
same,"Tissue radioactivity, Heart",[1]; [9],0.6 ± 0.1 %ID/g
same,"Tissue radioactivity, Intestine",[1]; [9],15.7 ± 0.9 %ID/g
same,"Tissue radioactivity, Kidney",[1]; [9],25.4 ± 5.2 %ID/g
same,"Tissue radioactivity, Liver",[1]; [9],12.0 ± 1.0 %ID/g
same,"Tissue radioactivity, Lung",[1]; [9],6.3 ± 0.3 %ID/g
same,"Tissue radioactivity, Muscle",[1]; [9],0.3 ± 0.1 %ID/g
same,"Tissue radioactivity, Pancreas",[1]; [9],3.9 ± 0.4 %ID/g
same,"Tissue radioactivity, Spleen",[1]; [9],1.3 ± 0.2 %ID/g
same,"Tissue radioactivity, Stomach",[1]; [9],1.4 ± 0.5 % injected dose
same,accumulation ratio of lung to liver,"[1]; mouse, in vivo",> 0.5
same,Radioactivity uptake in the bone,"[1]; over the time window, suggests absence of defluorination",low
same,SUV in the lung regions (PET),[2]; Air group,0.17
same,SUV in the lung regions (PET),[2]; CS group,0.22
same,Radioactivity accumulation in lung sections (autoradiography),[3]; Air group,16.2 ± 2.0 × 10^−4 %ID/section
same,Radioactivity accumulation in lung sections (autoradiography),[3]; CS group,30.0 ± 3.0 × 10^−4 %ID/section
same,"Radioactivity accumulation in lung sections, CS group vs Air group (autoradiography)",[3],2 fold
